# Measured values published in the NIST ThermoML archive (doi:10.1016/j.jct.2010.04.027).
# ± gives the expanded uncertainty stated by the source.
# Experiment: molar enthalpy of vaporization or sublimation
# Details: 298.15 K; Crystal; Static calorimetry
row,Structure (SMILES),molar enthalpy
1,c1ccc2c(c1)Cc1ccccc1O2 [10H-9-oxaanthracene],22 ± 0.526 kcal/mol
2,O=C1c2ccccc2Cc2ccccc21 [9(10H)-anthracenone],25.5 ± 0.86 kcal/mol
